Reference: patent US20090143279A1 (priority 2007, published 2009)
Like-named read-outs stand apart in the source and are kept apart here.

Tests used:
nuOXPHOS transcripts = type: cell-based, mouse
OXPHOS gene expression = type: cell-based, mouse
mtOXPHOS transcripts = type: cell-based, mouse
[1] = test system: mitochondrial membrane potential; type: cell-based, mouse
[2] = test system: cellular dehydrogenase activity
reactive oxygen species = type: cell-based, mouse
cytochrome c = type: cell-based, mouse
[3] = composite Z-score vs DMSO, Conc 20 μM
[4] = normalized composite Z-score vs mock-treated (DMSO) wells, Conc 20 μM
[5] = composite Z-score vs mock-treated (DMSO) wells, Conc 20 μM
[6] = Conc 20 μM, normalized score vs mock-treated (DMSO) wells
[7] = composite Z-score vs DMSO wells, Conc 20 μM
[8] = 20 μM, composite Z-score vs DMSO
[9] = 14.44 μM, composite Z-score vs DMSO

Structure (SMILES): CC(=O)O[C@H]1CC[C@@]2(C)C(=CC[C@H]3[C@@H]4CC[C@H]([C@H](C)CCCC(C)C)[C@@]4(C)CC[C@@H]32)C1 [cholesteryl acetate]
- nucOX (nuOXPHOS transcripts; [3]): 0.273
- GE-HTS (OXPHOS gene expression; [3]): 0.228
- mitoOX (mtOXPHOS transcripts; [3]): 0.142
- ΔΨm [1, 3]: −0.657
- MTT [2, 3]: −2.138
- ROS (reactive oxygen species; [3]): 0.524
- cyt c (cytochrome c; [3]): 0.097
- Viability (C2C12 myotubes; [3]): −1.471

Structure (SMILES): COC(=O)CC[C@@H](C)[C@H]1CC[C@H]2[C@@H]3[C@H](O)C[C@@H]4C[C@H](O)CC[C@]4(C)[C@H]3C[C@H](O)[C@]12C [cholic acid, methyl ester]
- nucOX (nuOXPHOS transcripts; [4]): −0.852
- GE-HTS (OXPHOS gene expression; [4]): −0.751
- mitoOX (mtOXPHOS transcripts; [4]): −0.394
- ΔΨm [1, 4]: 0.065
- MTT [2, 4]: −1.021
- ROS (reactive oxygen species; [4]): 0.295
- cyt c (cytochrome c; [4]): 0.018
- Viability (C2C12 myotubes; [4]): −0.383

Structure (SMILES): N[C@H]1C(O)O[C@H](CO)[C@H](O)[C@@H]1O[C@@H]1O[C@H](C(=O)O)[C@@H](O)[C@H](O)[C@H]1O (stereo partly drawn) [chondrosine]
- nucOX (nuOXPHOS transcripts; [3]): −0.782
- GE-HTS (OXPHOS gene expression; [3]): −0.743
- mitoOX (mtOXPHOS transcripts; [3]): −0.476
- ΔΨm [1, 3]: −1.001
- MTT [2, 3]: −1.759
- ROS (reactive oxygen species; [3]): 0.741
- cyt c (cytochrome c; [3]): 0.040
- Viability (C2C12 myotubes; [3]): −0.800

Structure (SMILES): CC1OC(OC2C(O)COC(OC3C(C)OC(OC4C(OC(=O)C56CCC(C)(C)CC5C5=CCC7C8(C)CCC(OC9OC(CO)C(O)C(O)C9O)C(C)(C)C8CCC7(C)C5(C)CC6O)OCC(O)C4O)C(O)C3O)C2O)C(O)C(O)C1O (stereo not drawn) [chrysanthellin A]
- nucOX (nuOXPHOS transcripts; [4]): −0.394
- GE-HTS (OXPHOS gene expression; [4]): −0.126
- mitoOX (mtOXPHOS transcripts; [4]): 0.474
- ΔΨm [1, 4]: −1.860
- MTT [2, 4]: −4.661
- ROS (reactive oxygen species; [4]): −1.565
- cyt c (cytochrome c; [4]): −4.088
- Viability (C2C12 myotubes; [4]): −4.075

Structure (SMILES): CC(C)=CC1C(CO)C1(C)C (stereo not drawn) [chrysanthemyl alcohol]
- nucOX (nuOXPHOS transcripts; [4]): 0.495
- GE-HTS (OXPHOS gene expression; [4]): 0.456
- mitoOX (mtOXPHOS transcripts; [4]): 0.331
- ΔΨm [1, 4]: −0.734
- MTT [2, 4]: −0.004
- ROS (reactive oxygen species; [4]): 0.345
- cyt c (cytochrome c; [4]): 0.264
- Viability (C2C12 myotubes; [4]): 0.604

Structure (SMILES): Cc1cc(O)c2c(O)c3c(O)cccc3cc2c1 [chrysarobin]
- nucOX (nuOXPHOS transcripts; [5]): −1.387
- GE-HTS (OXPHOS gene expression; [5]): −1.153
- mitoOX (mtOXPHOS transcripts; [5]): −0.401
- ΔΨm [1, 5]: −0.726
- MTT [2, 5]: −1.646
- ROS (reactive oxygen species; [5]): 0.805
- cyt c (cytochrome c; [5]): −0.074
- Viability (C2C12 myotubes; [5]): −0.685

Structure (SMILES): COc1cc(OC)c2c(=O)cc(-c3ccccc3)oc2c1 [chrysin dimethyl ether]
- nucOX (composite Z-score) (nuOXPHOS transcripts; [6]): 0.444
- GE-HTS (composite Z-score) (OXPHOS gene expression; [6]): 0.480
- mitoOX (composite Z-score) (mtOXPHOS transcripts; [6]): 0.470
- ΔΨm (composite Z-score) [1, 6]: 0.541
- MTT (composite Z-score) [2, 6]: −1.043
- ROS (composite Z-score) (reactive oxygen species; [6]): 1.158
- cyt c (composite Z-score) (cytochrome c; [6]): −1.016
- Viability (composite Z-score) (C2C12 myotubes; [6]): −0.006

Structure (SMILES): O=c1cc(-c2ccccc2)oc2cc(O)cc(O)c12 [chrysin]
- nucOX (nuOXPHOS transcripts; [7]): 0.071
- GE-HTS (OXPHOS gene expression; [7]): −0.137
- mitoOX (mtOXPHOS transcripts; [7]): −0.552
- ΔΨm [1, 7]: −0.941
- MTT [2, 7]: −1.566
- ROS (reactive oxygen species; [7]): 0.949
- cyt c (cytochrome c): 0.920
- cyt c (cytochrome c; [7]): 0.655
- Viability (C2C12 myotubes; [7]): −0.802

Structure (SMILES): COC(=O)C[C@H]1C2(C)CC34OC5(C)O[C@@]6([C@H](OC)C(OC(=O)C(C)C)[C@]7(C)C(/C(=C(/OC)C(C)C)C(=O)O[C@H]7c7ccoc7)[C@@]6(O5)[C@H](OC)[C@@]3(OC)C2OC(C)=O)[C@]14C (stereo partly drawn) [chukrasin methyl ether]
- nucOX (nuOXPHOS transcripts; [5]): 0.417
- GE-HTS (OXPHOS gene expression; [5]): 0.352
- mitoOX (mtOXPHOS transcripts; [5]): 0.198
- ΔΨm [1, 5]: −1.084
- MTT [2, 5]: −0.818
- ROS (reactive oxygen species; [5]): 0.777
- cyt c (cytochrome c; [5]): −0.248
- Viability (C2C12 myotubes; [5]): −0.822

Structure (SMILES): Oc1cc(O)c2c(c1)O[C@H](c1ccc(O)c(O)c1)[C@@H](O)C2 [cianidanol, reference compound]
- nucOX (nuOXPHOS transcripts; [7]): −0.357
- GE-HTS (OXPHOS gene expression; [7]): −0.113
- mitoOX (mtOXPHOS transcripts; [7]): 0.347
- ΔΨm [1, 7]: −1.746
- MTT [2, 7]: −1.471
- ROS (reactive oxygen species; [7]): −0.371
- cyt c (cytochrome c; [7]): 0.639
- Viability (C2C12 myotubes; [7]): 0.630

Structure (SMILES): Cc1cc(C2CCCCC2)n(O)c(=O)c1 [ciclopirox olamine]
- nucOX (nuOXPHOS transcripts; [8]): −1.098
- GE-HTS (OXPHOS gene expression; [8]): −0.965
- mitoOX (mtOXPHOS transcripts; [8]): −0.569
- ΔΨm [1, 8]: 2.355
- MTT [2, 8]: −3.390
- ROS (reactive oxygen species; [8]): −1.545
- cyt c (cytochrome c; [8]): −0.381
- Viability (C2C12 myotubes; [8]): −1.409

Structure (SMILES): CC1=C2C(=CO[C@H](C)[C@H]2C)C(O)=C(C(=O)O)C1=O [citrinin]
- nucOX (nuOXPHOS transcripts; [7]): 0.730
- GE-HTS (OXPHOS gene expression; [7]): 0.608
- mitoOX (mtOXPHOS transcripts; [7]): 0.218
- ΔΨm [1, 7]: −0.590
- MTT [2, 7]: −0.980
- ROS (reactive oxygen species; [7]): 0.122
- cyt c (cytochrome c; [7]): 0.012
- Viability (C2C12 myotubes; [7]): −0.040

Structure (SMILES): CC[C@H]1OC(=O)[C@H](C)[C@@H](O[C@H]2C[C@@](C)(OC)[C@@H](O)[C@H](C)O2)[C@H](C)[C@@H](O[C@@H]2O[C@H](C)C[C@H](N(C)C)[C@H]2O)[C@](C)(OC)C[C@@H](C)C(=O)[C@H](C)[C@@H](O)[C@]1(C)O [clarithromycin]
- nucOX (nuOXPHOS transcripts; [3]): −2.046
- GE-HTS (OXPHOS gene expression; [3]): −2.161
- mitoOX (mtOXPHOS transcripts; [3]): −1.928
- ΔΨm [1, 3]: 0.434
- MTT [2, 3]: −1.086
- ROS (reactive oxygen species; [3]): 0.293
- cyt c (cytochrome c; [3]): −1.095
- Viability (C2C12 myotubes; [3]): −0.763

Structure (SMILES): CC(C)(C)NCC(O)c1cc(Cl)c(N)c(Cl)c1 (stereo not drawn) [clenbuterol]
- nucOX (nuOXPHOS transcripts; [9]): 0.063
- GE-HTS (OXPHOS gene expression; [9]): 0.054
- mitoOX (mtOXPHOS transcripts; [9]): 0.011
- ΔΨm [1, 9]: −1.139
- MTT [2, 9]: −1.330
- ROS (reactive oxygen species; [9]): 0.914
- cyt c (cytochrome c; [9]): −0.261
- Viability (C2C12 myotubes; [9]): 0.134

Structure (SMILES): C[N+]12CCC(CC1)C(OC(=O)C(O)(c1ccccc1)c1ccccc1)C2 (stereo not drawn) [clidinium]
- nucOX (nuOXPHOS transcripts): −0.202
- nucOX (nuOXPHOS transcripts; [8]): −0.503
- GE-HTS (OXPHOS gene expression): −0.462
- GE-HTS (OXPHOS gene expression; [8]): −0.556
- mitoOX (mtOXPHOS transcripts): −0.903
- mitoOX (mtOXPHOS transcripts; [8]): −0.602
- ΔΨm [1]: −0.715
- ΔΨm [1, 8]: −0.772
- MTT [2]: −2.250
- MTT [2, 8]: −1.393
- ROS (reactive oxygen species): 1.870
- ROS (reactive oxygen species; [8]): 1.625
- cyt c (cytochrome c): 0.176
- cyt c (cytochrome c; [8]): −0.062
- Viability (C2C12 myotubes): 0.172
- Viability (C2C12 myotubes; [8]): −0.084

Structure (SMILES): COC(=O)[C@H](c1ccccc1Cl)N1CCc2sccc2C1 [clopidogrel]
- nucOX (nuOXPHOS transcripts): −1.328
- GE-HTS (OXPHOS gene expression): −1.470
- mitoOX (mtOXPHOS transcripts): −1.441
- ΔΨm [1]: −0.698
- MTT [2]: −1.447
- ROS (reactive oxygen species): −0.196
- cyt c (cytochrome c): 0.410
- Viability (C2C12 myotubes): −1.134

Structure (SMILES): CC(=O)OC1CCC23CC1(C)CCC2C(C)(C)CC3OC(C)=O (stereo not drawn) [clovanediol diacetate]
- nucOX (nuOXPHOS transcripts; [4]): 0.007
- GE-HTS (OXPHOS gene expression; [4]): −0.020
- mitoOX (mtOXPHOS transcripts; [4]): −0.026
- ΔΨm [1, 4]: −0.599
- MTT [2, 4]: −0.708
- ROS (reactive oxygen species; [4]): −0.318
- cyt c (cytochrome c; [4]): 0.384
- Viability (C2C12 myotubes; [4]): −0.119

Structure (SMILES): Cc1onc(-c2ccccc2Cl)c1C(=O)N[C@@H]1C(=O)N2[C@@H]1SC(C)(C)[C@@H]2C(=O)O [cloxacillin]
- nucOX (nuOXPHOS transcripts; [8]): −0.506
- GE-HTS (OXPHOS gene expression; [8]): −0.568
- mitoOX (mtOXPHOS transcripts; [8]): −0.508
- ΔΨm [1, 8]: −0.339
- MTT [2, 8]: −1.769
- ROS (reactive oxygen species; [8]): 0.259
- cyt c (cytochrome c; [8]): 0.459
- Viability (C2C12 myotubes; [8]): −0.395
